Data: publication PMC3189958, “Salivary PYY: A Putative Bypass to Satiety” (PLoS ONE, 2011)
No end group written: not given here.

Key:
Y2 receptor = target: T1, Y2 receptor (Mus musculus, UniProt P97295); assay: Y2R antagonist study: oral spray of BIIE0246/PYY3-36 mixture, 2 hr FI after 24 hr fast; type: in vivo
T1 construct: from tissue; host or cells: live mice; oral mucosa / tongue epithelium
T1 sequence (P97295 1-381): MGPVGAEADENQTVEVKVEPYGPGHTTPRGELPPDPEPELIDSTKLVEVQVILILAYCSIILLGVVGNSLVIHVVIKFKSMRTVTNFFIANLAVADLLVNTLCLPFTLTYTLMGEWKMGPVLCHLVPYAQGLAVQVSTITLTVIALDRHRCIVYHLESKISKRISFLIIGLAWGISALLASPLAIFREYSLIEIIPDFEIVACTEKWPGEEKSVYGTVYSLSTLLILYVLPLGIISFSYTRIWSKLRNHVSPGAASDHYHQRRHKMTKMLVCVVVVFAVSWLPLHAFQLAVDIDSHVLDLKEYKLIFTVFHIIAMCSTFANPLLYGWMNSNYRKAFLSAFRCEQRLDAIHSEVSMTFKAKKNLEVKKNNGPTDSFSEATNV
Description: Direct proof of PYY3-36/Y2R interaction was obtained by utilizing a selective Y2 receptor antagonist BIIE0246 [26]. The antagonist and PYY3-36 agonist (12 mg/100 g BW) were mixed at the 50∶1 molar ratio, respectively, and the mixture was used to treat fasted mice as described above (Fig. 6H).
(§1) One ml total volume sterile vials were obtained from Sephora. Murine PYY3-36 (Bachem) was diluted in sterile H2O. All 8–10 weeks old mice were individually housed. Mice were conditioned to the oral spray with vehicle after 24 hours fast on three separate occasions. Groups were randomized by FI and BW. […] The applied dose was estimated using calculated average volume ([…]) delivered per puff. Food was provided 10 min after the spray was applied and the amount consumed was measured at either 1 hr after the treatment, or at several time points (1, 2, 4, 6, 12, 18, and 24 hours). Taking into account the nocturnal feeding pattern, the experiment was conducted during the night with the first measurement taken at 2000 hrs. Each experiment was done at least 3 times in a crossover manner with 8 mice per group. For the Y2R antagonist study, BIIE0246 compound (Tocris Bioscience, Ellisville, MO) was dissolved in 100% EtOH (0.2 mM) and the stock solution was mixed with PYY3-36 aqueous solution at the 50∶1 molar ratio (BIIE0246/PYY3-36) with the final concentration of 2% EtOH in the mixture. […]

DIO C57Bl/6J mice = assay: Repeated once-a-day oral spray in DIO mice fed high fat diet ad libitum (FI and BW); type: in vivo, mouse; settings: daily oral spray 18 mg/100 g, n = 9 per group
Description: Figure 6 Oral PYY3-36 augmentation therapy. […] Experiments for each peptide were conducted separately and the results were integrated in one graph as fractions of average amount of FI consumed by the control group. […] (B) Dose-response effect of PYY3-36 on 2 hr FI vs. control (n = 8 each group). (C) Effect of PYY3-36 oral spray on FI in C57Bl/6J mice measured at 1, 2, 6, 12, 18, and 24 hr post treatment (n = 8/group). (D) Effect of PYY3-36 oral spray on FI in PYY^-/- mice measured at 1, 2, 6, 12, 18, and 24 hr post treatment (n = 8/group). (E) Average 24-hr FI in DIO mice treated with daily PYY3-36 OS (18 mg/100 g). (F) Effect of daily PYY3-36 OS (18 mg/100 g) treatment on BW change in DIO C57Bl/6J mice (n = 9 per each group). (G) Concentration of PYY3-36 in plasma of PYY KO mice 10 min after PYY3-36 (18 mg/100 g BW), or control oral spray vs. PYY3-36 injected i.p. (6 mg/100 g BW) (n = 10 per group). (H) Effect of Y2R specific antagonist BIIE0246 on anorexigenic action of PYY3-36 (n = 8 per each group) measured as 2 hr FI after 24 hr fast.*P<0.05, **P<0.01.
Because of the sustained 24-hr effect, we tested whether repeated once-a-day treatment would also affect the FI and BW accumulation over extended period of time when animals were fed high fat (HF) diet ad libitum.

rodents = settings: i.p., ref [16]; cited from earlier work
[1] = PYY3-36 in saliva after i.p. injection (RIA); type: in vivo, mouse; settings: male C57Bl/6J mice, 10 min post injection, n = 10 per group
Description: Some proteins enter saliva from salivary glands where they are expressed and secreted in an exocrine fashion via zymogen granules. Other peptides can enter saliva as a transudate from serum. To establish the source of salivary PYY3-36 we asked whether peptide circulating in a bloodstream can be transported into saliva. To this end, mice were injected intraperitoneally (i.p.) with increasing doses of murine synthetic PYY3-36 (Fig. 1F).
Salivation was stimulated as described earlier. Whole saliva was collected for 5 min from the oral cavity into Eppendorf tubes containing 5000 U Kallikrein inhibitor (Biomedicals) and 50 mM DPP-IV inhibitor (Linco Research). Saliva samples were frozen at −80°C until analyzed.
PYY3-36 from saliva and plasma was measured by PYY3-36 RIA kit (Phoenix Pharmaceuticals). The identification of PYY3-36 from human saliva was performed by reverse-phase high performance liquid chromatography (RP-HPLC) followed by Matrix-Assisted Laser Desorption Ionization – Time of Flight (MALDI-TOF) mass spectrometry (MS). PYY3-36 synthetic peptide (Bachem) was used for calibration of all purification steps. Briefly, saliva was pre-purified using a Sep-Pak C18 cartridge (Waters) followed by purification on RP-HPLC uBondapak C18 column (Waters) as described. […]

PYY KO mice = assay: Oral spray satiation study, FI over 24 hours after single treatment, PYY KO mice; type: in vivo, mouse; settings: n = 8/group
Description: To investigate the duration of action of orally applied PYY3-36 we conducted standard satiation studies in C57Bl/6J as well as in PYY KO mice measuring FI over 24 hours after single treatment.
as §1, with “mixture. Prior to this experiment, mice were conditioned to 2% EtOH spray on three separate occasions.” for “mixture.”

C57Bl/6J mice = assay: Oral spray acute augmentation: food intake after 24 hours fasting; type: in vivo, mouse
Description: Figure 6 Oral PYY3-36 augmentation therapy. […] (B) Dose-response effect of PYY3-36 on 2 hr FI vs. control (n = 8 each group). (C) Effect of PYY3-36 oral spray on FI in C57Bl/6J mice measured at 1, 2, 6, 12, 18, and 24 hr post treatment (n = 8/group). (D) Effect of PYY3-36 oral spray on FI in PYY^-/- mice measured at 1, 2, 6, 12, 18, and 24 hr post treatment (n = 8/group). (E) Average 24-hr FI in DIO mice treated with daily PYY3-36 OS (18 mg/100 g). (F) Effect of daily PYY3-36 OS (18 mg/100 g) treatment on BW change in DIO C57Bl/6J mice (n = 9 per each group). (G) Concentration of PYY3-36 in plasma of PYY KO mice 10 min after PYY3-36 (18 mg/100 g BW), or control oral spray vs. PYY3-36 injected i.p. (6 mg/100 g BW) (n = 10 per group).
One ml total volume sterile vials were obtained from Sephora. Murine PYY3-36 (Bachem) was diluted in sterile H2O. All 8–10 weeks old mice were individually housed. Mice were conditioned to the oral spray with vehicle after 24 hours fast on three separate occasions. Groups were randomized by FI and BW. […] The applied dose was estimated using calculated average volume ([…]) delivered per puff. Food was provided 10 min after the spray was applied and the amount consumed was measured at either 1 hr after the treatment, or at several time points (1, 2, 4, 6, 12, 18, and 24 hours). Taking into account the nocturnal feeding pattern, the experiment was conducted during the night with the first measurement taken at 2000 hrs. Each experiment was done at least 3 times in a crossover manner with 8 mice per group. For the Y2R antagonist study, BIIE0246 compound (Tocris Bioscience, Ellisville, MO) was dissolved in 100% EtOH (0.2 mM) and the stock solution was mixed with PYY3-36 aqueous solution at the 50∶1 molar ratio (BIIE0246/PYY3-36) with the final concentration of 2% EtOH in the mixture. Prior to this experiment, mice were conditioned to 2% EtOH spray on three separate occasions. Wherever practical, the behavioral experiments were conducted in a blind fashion with the personnel uninformed about the treatment regimen.

[2] = Concentration of PYY3-36 in plasma after oral spray or i.p. injection (RIA); type: in vivo, mouse; settings: PYY KO mice, n = 10 per group
Description: To exclude potential interference with circulating background PYY in the plasma, we used PYY KO mice.
Blood was collected from facial vein puncture into EDTA-coated tubes (Capiject) containing protease inhibitors as described for saliva collection. Plasma samples were frozen at −80°C until analyzed.
PYY3-36 from saliva and plasma was measured by PYY3-36 RIA kit (Phoenix Pharmaceuticals). The identification of PYY3-36 from human saliva was performed by reverse-phase high performance liquid chromatography (RP-HPLC) followed by Matrix-Assisted Laser Desorption Ionization – Time of Flight (MALDI-TOF) mass spectrometry (MS). PYY3-36 synthetic peptide (Bachem) was used for calibration of all purification steps. Briefly, saliva was pre-purified using a Sep-Pak C18 cartridge (Waters) followed by purification on RP-HPLC uBondapak C18 column (Waters) as described. The PYY3-36-containing fraction was collected, air dried and reconstituted in 0.1% formic acid in 50% acetonitrile/water prior to analysis with MALDI-TOF as described, [40].

In the case of `N=C(N)NCCC[C@H](NC(=O)CC1(CC(=O)N2CCN(C3c4ccccc4NC(=O)c4ccccc43)CC2)CCCC1)C(=O)NCCn1c(=O)n(-c2ccccc2)n(-c2ccccc2)c1=O` (stereo partly shown) [BIIE0246], the “effect of antagonist alone on 2 hr FI” value (Y2 receptor; BIIE0246 alone, data not shown) is reported as “no effect on 2 hr FI” and the “effect of antagonist on the anorexigenic action of PYY3-36, 2 hr FI” value (Y2 receptor; BIIE0246 mixed with PYY3-36 (12 mg/100 g BW) at 50:1 molar ratio, 2% EtOH, after 24 hr fast, n = 8 per group) is reported as “completely ablated the anorexigenic effect of PYY3-36”.

In the case of Peptide YY3-36 [PYY3-36], the BW accumulation (DIO C57Bl/6J mice; DIO C57Bl/6J mice, HF diet ad libitum) is given as “retarded BW accumulation which became significantly on day 17th”, the “average 24-hr FI of HF food” value (DIO C57Bl/6J mice; DIO mice) is given as “significantly less HF food” and the “FI after intraperitoneal injection” value (rodents) is given as “dose-dependent reduction in FI”. The “PYY3-36 in saliva after i.p. injection of increasing doses” value [1] was “significant relationship between the injected dose and the concentration of the peptide detected in saliva”, the “response of FI over 24 hours to the low dose” value (PYY KO mice; PYY KO mice, low dose 3 mg/100 g BW) was “responded to the treatment in significant manner observed after 18 and 24 hrs post experiment” and the “duration of anorexigenic response, FI over 24 hours after single treatment” value (PYY KO mice; PYY-/- mice, high dose 12 mg/100 g BW) was “significant until the next treatment 24 hrs later”. For the same compound, the “duration of anorexigenic response, FI over 24 hours after single treatment” value (C57Bl/6J mice; C57Bl/6J mice, oral spray, high dose 12 mg/100 g BW, n = 8/group) was “significant until the next treatment 24 hrs later”, the “response of FI over 24 hours to the low dose” value (C57Bl/6J mice; C57Bl/6J mice, oral spray, low dose 3 mg/100 g BW, n = 8/group) was “only PYY KO mice responded” and the “one hour FI as % of control values at the maximum applied dose” value (C57Bl/6J mice; oral spray, dose-response, 12 mg/100 g, after 24 hr fast, n = 8 each group (legend Fig. 6B says 2 hr FI)) was 81%. The “food consumed less than the control group, 1 hour FI” value (C57Bl/6J mice; oral spray, single puff, 3 mg/100 g BW, after 24 hours of fasting, food given 10 min after spray, average, n = 10 per group, C57Bl/6J mice) was 12.3%, the “PYY3-36 in plasma 10 min after i.p. injection” value ([2]; i.p. 6 mg/100g BW) was “significant increase in PYY3-36 found in plasma” and the “PYY3-36 in plasma 10 min after oral spray” value ([2]; oral spray 18 mg/100 g BW) was “no detectable PYY3-36 in the plasma”.

For “amylin (KCNTATCATQRLANFLVRSSNNLGPVLPPTNVGSNTY; ends and bridges not checked; cysteine pairing not given here; UniProt P12968 38-74, looked up) [endocrine peptide tested by oral spray application]”, the “effect of oral spray application on FI” value (C57Bl/6J mice; oral spray, similar approach, data not shown) was “no change of FI”.

In the case of “glucagon-like peptide-1 (HAEGTFTSDVSSYLEGQAAKEFIAWLVKGR; ends and bridges not checked; UniProt P55095 98-127, looked up) [GLP-1]”, the “effect of oral spray on 1 hour FI (satiation) vs control oral spray” value (C57Bl/6J mice; oral spray after 24 hours fasting, GLP-1 3 mg/100 g BW, Exendin-4 10 mg/100 g BW, n = 10 each group) is reported as “induced stronger satiation”.
